Results: patent US10494368B2, “Pesticidally active tetracyclic derivatives with sulfur containing substituents” (Syngenta Participations AG, priority 2015, dated 2019)

Experiments:
Type in all cases: in vivo
[1] = tested on: Aedes aegypti (Yellow Fever Mosquito); experiment: Aedes aegypti adult contact test on dried deposits; conditions: application rate 200 ppm in ethanol, adult females, after 48 h and/or 24 h
Procedure: Test solutions, at an application rate of 200 ppm in ethanol, were applied to 12 well tissue culture plates. Once the deposits were dry, five, two to five day old adult female Aedes aegypti were added to each well, and sustained with a 10% sucrose solution in a cotton wool plug. Assessment of knockdown was made one hour after introduction, and mortality was assessed at 24 and 48 hours after introduction.
The following compounds gave at least 80% control of Aedes aegypti after 48 h and/or 24 h: […]

[2] = tested on: Plutella xylostella (Diamond Back Moth); experiment: Plutella xylostella on artificial diet; conditions: 120 h, application rate 200 ppm, L2 larvae on artificial diet, 5 days after infestation, read-out: effect in at least one of the two categories (mortality or growth inhibition)
Procedure: (§1) 24-well microtiter plates with artificial diet were treated with aqueous test solutions prepared from 10′000 ppm DMSO stock solutions by pipetting. After drying, the plates were infested with L2 larvae (10 to 15 per well). The samples were assessed for mortality and growth inhibition in comparison to untreated samples 5 days after infestation.
(§2) The following compounds gave an effect of at least 80% in at least one of the two categories (mortality or growth inhibition) at an application rate of 200 ppm: […]

[3] = tested on: Spodoptera littoralis (Egyptian Cotton Leaf Worm); experiment: Spodoptera littoralis on cotton leaf discs, spray; conditions: foliar, 72 h, application rate 200 ppm, L1 larvae on cotton leaf discs, 3 days after infestation
Procedure: Cotton leaf discs were placed onto agar in 24-well microtiter plates and sprayed with aqueous test solutions prepared from 10′000 ppm DMSO stock solutions. After drying the leaf discs were infested with five L1 larvae. The samples were assessed for mortality, anti-feeding effect, and growth inhibition in comparison to untreated samples 3 days after infestation. Control of Spodoptera littoralis by a test sample is given when at least one of the categories mortality, anti-feedant effect, and growth inhibition is higher than the untreated sample.

[4] = tested on: Spodoptera littoralis (Egyptian Cotton Leaf Worm); experiment: Spodoptera littoralis, uptake by lettuce roots from agar; conditions: 144 h, test rate 12.5 ppm, compound absorbed by lettuce roots, 6 days after infestation, read-out: effect in at least one of the three categories (mortality, anti-feeding, or growth inhibition)
Excerpt: Test compounds were applied by pipette from 10′000 ppm DMSO stock solutions into 24-well plates and mixed with agar. Lettuce seeds were placed onto the agar and the multi well plate was closed by another plate which contained also agar. After 7 days the compound was absorbed by the roots and the lettuce grew into the lid plate. The lettuce leaves were then cut off into the lid plate. Spodoptera eggs were pipetted through a plastic stencil onto a humid gel blotting paper and the lid plate was closed with it. The samples were assessed for mortality, anti-feedant effect and growth inhibition in comparison to untreated samples 6 days after infestation.
The following compounds gave an effect of at least 80% in at least one of the three categories (mortality, anti-feeding, or growth inhibition) at a test rate of 12.5 ppm: A3, A4, A5, A6, A8, A10, B3, B4, B5 and C2.

[5] = tested on: Myzus persicae (Green Peach Aphid); experiment: Myzus persicae feeding/contact activity on sunflower leaf discs; conditions: foliar, 144 h, application rate 200 ppm, aphid population of mixed ages on sunflower leaf discs, 6 days after infestation
Procedure: Feeding/Contact activity Sunflower leaf discs were placed onto agar in a 24-well microtiter plate and sprayed with aqueous test solutions prepared from 10′000 ppm DMSO stock solutions. After drying, the leaf discs were infested with an aphid population of mixed ages. The samples were assessed for mortality 6 days after infestation.

[6] = tested on: Euschistus heros (Neotropical Brown Stink Bug); experiment: Euschistus heros on soybean leaves, spray; conditions: 120 h, application rate 200 ppm, N2 nymphs on soybean leaves, 5 days after infestation, read-out: effect in at least one of the two categories (mortality or growth inhibition)
Procedure: Soybean leaves on agar in 24-well microtiter plates were sprayed with aqueous test solutions prepared from 10′000 ppm DMSO stock solutions. After drying the leaves were infested with N2 nymphs. The samples were assessed for mortality and growth inhibition in comparison to untreated samples 5 days after infestation.
as §2

[7] = tested on: Diabrotica Balteata (Corn Root Worm); experiment: Diabrotica balteata on maize sprouts, spray; conditions: 96 h, application rate 200 ppm, L2 larvae on maize sprouts, 4 days after infestation, read-out: effect in at least one of the two categories (mortality or growth inhibition)
Procedure: as §1, with “Maize sprouts placed onto an agar layer in 24-well” for “24-well”, “plates” for “plates with artificial diet”, “spraying.” for “pipetting.”, “(6” for “(10”, “10” for “15”, “4” for “5”
as §2

[8] = tested on: Bemisia tabaci (Cotton White Fly); experiment: Bemisia tabaci feeding/contact activity on cotton leaf discs; conditions: foliar, 144 h, application rate 200 ppm, adult white flies on cotton leaf discs, 6 days after incubation
Procedure: Feeding/contact activity Cotton leaf discs were placed on agar in 24-well microtiter plates and sprayed with aqueous test solutions prepared from 10′000 ppm DMSO stock solutions. After drying the leaf discs were infested with adult white flies. The samples were checked for mortality 6 days after incubation.

CCS(=O)(=O)c1c(-c2nc3cc(C(F)(F)F)cnc3n2C)sc2cc(SC(F)(F)F)ccc12 [Compound A10, 2-[3-ethylsulfonyl-6-(trifluoromethylsulfanyl)benzothiophen-2-yl]-3-methyl-6-(trifluoromethyl)imidazo[4,5-b]pyridine]
≥ 80%: pest or weed control at 200 ppm [1] | percent effect (mortality or growth inhibition) at 200 ppm [2] | percent control (mortality, anti-feedant effect or growth inhibition) at 200 ppm [3] | percent effect (mortality, anti-feeding or growth inhibition) at 12.5 ppm [4] | mortality at 200 ppm [5] | percent effect (mortality or growth inhibition) at 200 ppm [6] | percent effect (mortality or growth inhibition) at 200 ppm [7]

CCS(=O)(=O)c1c(-c2nc3cc(C(F)(F)F)cnc3n2C)sc2cc(C3CC3)ccc12 [Compound A11, 2-(6-cyclopropyl-3-ethylsulfonyl-benzothiophen-2-yl)-3-methyl-6-(trifluoromethyl)imidazo[4,5-b]pyridine]
≥ 80%: percent effect (mortality or growth inhibition) at 200 ppm [2] | percent control (mortality, anti-feedant effect or growth inhibition) at 200 ppm [3] | mortality at 200 ppm [5] | percent effect (mortality or growth inhibition) at 200 ppm [6] | percent effect (mortality or growth inhibition) at 200 ppm [7]

CCSc1c(-c2nc3cc(C(F)(F)F)ccc3n2C)sc2cc(C(F)(F)F)ccc12 [Compound C1]
≥ 80%: percent effect (mortality or growth inhibition) at 200 ppm [2] | percent control (mortality, anti-feedant effect or growth inhibition) at 200 ppm [3] | percent effect (mortality or growth inhibition) at 200 ppm [7]

CCS(=O)(=O)c1c(-c2nc3cc(C(F)(F)F)ccc3n2C)sc2cc(C(F)(F)F)ccc12 [Compound C2]
≥ 80%: mortality at 200 ppm [8] | pest or weed control at 200 ppm [1] | percent effect (mortality or growth inhibition) at 200 ppm [2] | percent control (mortality, anti-feedant effect or growth inhibition) at 200 ppm [3] | percent effect (mortality, anti-feeding or growth inhibition) at 12.5 ppm [4] | percent effect (mortality or growth inhibition) at 200 ppm [7]

CCS(=O)(=O)c1c(-c2nc3cc(C(F)(F)F)ncc3n2C)sc2cc(C(F)(F)F)ccc12 [Compound B4, 2-[3-ethylsulfonyl-6-(trifluoromethyl)benzothiophen-2-yl]-3-methyl-6-(trifluoromethyl) imidazo[4,5-c]pyridine]
≥ 80%: mortality at 200 ppm [8] | pest or weed control at 200 ppm [1] | percent effect (mortality or growth inhibition) at 200 ppm [2] | percent control (mortality, anti-feedant effect or growth inhibition) at 200 ppm [3] | percent effect (mortality, anti-feeding or growth inhibition) at 12.5 ppm [4] | mortality at 200 ppm [5] | percent effect (mortality or growth inhibition) at 200 ppm [6] | percent effect (mortality or growth inhibition) at 200 ppm [7]

CCS(=O)(=O)c1c(-c2nc3cc(C(F)(F)F)cnc3n2C)sc2cc(C(F)(F)C(F)(F)F)ccc12 [Compound A12]
≥ 80%: pest or weed control at 200 ppm [1] | percent effect (mortality or growth inhibition) at 200 ppm [2] | percent control (mortality, anti-feedant effect or growth inhibition) at 200 ppm [3] | percent effect (mortality or growth inhibition) at 200 ppm [6] | percent effect (mortality or growth inhibition) at 200 ppm [7]

CCSc1c(-c2nc3cc(C(F)(F)F)cnc3n2C)sc2ccccc12 [Compound A1, 2-(3-ethylsulfanylbenzothiophen-2-yl)-3-methyl-6-(trifluoromethyl)imidazo[4,5-b]pyridine]
≥ 80%: mortality at 200 ppm [5] | percent effect (mortality or growth inhibition) at 200 ppm [7]

CCS(=O)(=O)c1c(-c2nc3cc(C(F)(F)F)cnc3n2C)sc2cc(-n3ccc(C(F)(F)F)n3)ccc12 [Compound A9, 2-[3-ethylsulfonyl-6-[3-(trifluoromethyl)pyrazol-1-yl]benzothiophen-2-yl]-3-methyl-6-(trifluoromethyl)imidazo[4,5-b]pyridine]
≥ 80%: percent effect (mortality or growth inhibition) at 200 ppm [2] | percent control (mortality, anti-feedant effect or growth inhibition) at 200 ppm [3] | percent effect (mortality or growth inhibition) at 200 ppm [7]

CCS(=O)(=O)c1c(-c2nc3cnc(C(F)(F)F)cc3n2C)sc2ccccc12 [Compound B2, 2-(3-ethylsulfonylbenzothiophen-2-yl)-1-methyl-6-(trifluoromethyl)imidazo[4,5-c]pyridine]
≥ 80%: percent effect (mortality or growth inhibition) at 200 ppm [2] | percent control (mortality, anti-feedant effect or growth inhibition) at 200 ppm [3] | mortality at 200 ppm [5] | percent effect (mortality or growth inhibition) at 200 ppm [6] | percent effect (mortality or growth inhibition) at 200 ppm [7]

CCS(=O)(=O)c1c(-c2nc3cc(C(F)(F)F)cnc3n2C)sc2cc(C(F)(F)F)ccc12 [Compound A6]
≥ 80%: mortality at 200 ppm [8] | pest or weed control at 200 ppm [1] | percent effect (mortality or growth inhibition) at 200 ppm [2] | percent control (mortality, anti-feedant effect or growth inhibition) at 200 ppm [3] | percent effect (mortality, anti-feeding or growth inhibition) at 12.5 ppm [4] | mortality at 200 ppm [5] | percent effect (mortality or growth inhibition) at 200 ppm [6] | percent effect (mortality or growth inhibition) at 200 ppm [7]

CCS(=O)(=O)c1c(-c2nc3cc(SC(F)(F)F)cnc3n2C)sc2cc(Br)ccc12 [Compound A4, 2-(6-bromo-3-ethylsulfonyl-benzothiophen-2-yl)-3-methyl-6-(trifluoromethylsulfanyl)imidazo[4,5-b]pyridine]
≥ 80%: mortality at 200 ppm [8] | pest or weed control at 200 ppm [1] | percent effect (mortality or growth inhibition) at 200 ppm [2] | percent control (mortality, anti-feedant effect or growth inhibition) at 200 ppm [3] | percent effect (mortality, anti-feeding or growth inhibition) at 12.5 ppm [4] | mortality at 200 ppm [5] | percent effect (mortality or growth inhibition) at 200 ppm [6] | percent effect (mortality or growth inhibition) at 200 ppm [7]

CCSc1c(-c2nc3cc(C(F)(F)F)cnc3n2C)sc2cc(Br)ccc12 [Compound A7, 2-(6-bromo-3-ethylsulfanyl-benzothiophen-2-yl)-3-methyl-6-(trifluoromethyl)imidazo[4,5-b]pyridine]
≥ 80%: pest or weed control at 200 ppm [1] | percent effect (mortality or growth inhibition) at 200 ppm [2] | percent control (mortality, anti-feedant effect or growth inhibition) at 200 ppm [3] | percent effect (mortality or growth inhibition) at 200 ppm [6] | percent effect (mortality or growth inhibition) at 200 ppm [7]

CCS(=O)(=O)c1c(-c2nc3cc(C(F)(F)F)cnc3n2C)sc2cc(Br)ccc12 [Compound A8, 2-(6-bromo-3-ethylsulfonyl-benzothiophen-2-yl)-3-methyl-6-(trifluoromethyl)imidazo[4,5-b]pyridine]
≥ 80%: mortality at 200 ppm [8] | pest or weed control at 200 ppm [1] | percent effect (mortality or growth inhibition) at 200 ppm [2] | percent control (mortality, anti-feedant effect or growth inhibition) at 200 ppm [3] | percent effect (mortality, anti-feeding or growth inhibition) at 12.5 ppm [4] | mortality at 200 ppm [5] | percent effect (mortality or growth inhibition) at 200 ppm [6] | percent effect (mortality or growth inhibition) at 200 ppm [7]

CCS(=O)(=O)c1c(-c2nc3cc(C(F)(F)F)cnc3n2C)sc2ccccc12 [Compound A2, 2-(3-ethylsulfonylbenzothiophen-2-yl)-3-methyl-6-(trifluoromethyl)imidazo [4,5-b] pyridine]
≥ 80%: percent effect (mortality or growth inhibition) at 200 ppm [2] | percent control (mortality, anti-feedant effect or growth inhibition) at 200 ppm [3] | mortality at 200 ppm [5] | percent effect (mortality or growth inhibition) at 200 ppm [6] | percent effect (mortality or growth inhibition) at 200 ppm [7]

CCSc1c(-c2nc3cc(C(F)(F)F)cnc3n2C)sc2cc(C(F)(F)F)ccc12 [Compound A5]
≥ 80%: pest or weed control at 200 ppm [1] | percent effect (mortality or growth inhibition) at 200 ppm [2] | percent control (mortality, anti-feedant effect or growth inhibition) at 200 ppm [3] | percent effect (mortality, anti-feeding or growth inhibition) at 12.5 ppm [4] | percent effect (mortality or growth inhibition) at 200 ppm [6] | percent effect (mortality or growth inhibition) at 200 ppm [7]
